Experimental findings from patent publication US8431530B2, “Compositions and methods for treating aids or cancer by inhibiting the secretion of microparticles” (priority 2009, dated 2013) are described below.

This assay has as its system Mortalin/GRP75 and other cellular factors of Jurkat cell lysates. Nature of the assay: FLAG immuno-precipitation pulldown of cellular factors, MS and Western blot. Format: binding. Conditions: FLAG IP on Jurkat cell lysates. The protocol:
SMRwt vs. SMRmt peptides were used in conjunction with FLAG immuno-precipitation on Jurkat cell lysates to pulldown cellular factors that interacted with the SMRwt antagonist, but not with the SMRmt negative control. The cellular factor(s) that interact with the antagonist are analyzed by the FLAG IP assay. Briefly, cell lysates are combined with AminoLink Plus resin coupled to FLAG-tagged SMR peptides. SMR-specific cellular proteins (ROY) bind to the SMR peptides on the resin. Non-specific contaminants (G BIV) are washed off of the resin and removed by centrifugation. The SMR-specific cell proteins (ROY) are eluted and collected. Some strongly bound contaminants (V) are also eluted and collected.
Mortalin interacts with p53, and is shown to be involved in apoptosis and vesicle transport (MAC complex). It is also found in microvesicles released by tumor cells.
The gel was also Western probed with α-Mortalin antibody. A protein with a molecular weight of ˜75 kDa was detected in the lanes containing the cell lysate, the antagonist eluate, and the antagonist affinity resin (FIG. 13, panel B, Lanes 1, 3, and 5), but not in the negative control or negative control peptide eluate's lanes (FIG. 13, panel B, Lanes 2 and 4).
On the technique in general: Immunoblotting shows a protein as a band on a membrane.

H-VGFPVAAVGFPVDYKDDDDK-OH [SMRwt]: the “~75 kDa protein in peptide eluate, Western probed with α-Mortalin antibody” value is listed as “detected”. Further, the “cellular proteins in bands of the SMRwt lane but not the SMRmt lane (MALDI TOF MS/MS, LC/MS/MS)” value (SDS PAGE) is recorded as “Mortalin/GRP75; Myosin 10; Vimentin; GRP78; HSC70”.
